In patent US8778966B2, “Quinolinone derivatives as PARP and tank inhibitors” (Janssen Pharmaceutica, NV, priority 2007, dated 2014):

Experiments:
Human PARP-1 enzyme = target: T1, Human PARP-1 enzyme (Homo sapiens, UniProt P09874); assay: In vitro Scintillation Proximity Assay (SPA) for PARP-1 inhibitory activity; assay type: biochemical; settings: read-out: in vitro SPA assay PARP-1 pIC50 (converted)
T1 construct: purchased Trevigen
Outline: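 SPA assay: nicked-DNA-activated PARP-1 (0.1–0.2 μg/ml) ADP-ribosylates biotinylated histones (2 μg/ml) using [3H]-NAD+, 20 min at RT in Tris pH 8/DTT/MgCl2, stopped with 2 mM NAD+. Blank-subtracted cpm expressed as % control; IC50 by linear interpolation, reported as pIC50 (10−5 to 3×10−9 M tested).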

tubulin = assay: Tubulin polymerization assay; assay type: biochemical; design: key: a compound showing 0 to 50% inhibition at 20 μM is reported as score 1; Score 2 compounds are defined as compound showing more than 50% inhibition at 20 μM and less than 50% inhibition at 5 μM; a compound showing more than 50% inhibition at 5 μM is reported as score 3; settings: tested at 20 μM and 5 μM
Outline: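 Cytoskeleton kit tubulin was run in a 10 µl final volume at 37 °C, with fluorescence read every minute for 1 h. Polymerization was taken as the maximum slope (4-point linear regression) and expressed as % of no-compound control. Compounds were tested at 20 µM, then at 5 µM if inhibition exceeded 50%, and scored by % inhibition.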

T1 sequence (P09874 whole entry): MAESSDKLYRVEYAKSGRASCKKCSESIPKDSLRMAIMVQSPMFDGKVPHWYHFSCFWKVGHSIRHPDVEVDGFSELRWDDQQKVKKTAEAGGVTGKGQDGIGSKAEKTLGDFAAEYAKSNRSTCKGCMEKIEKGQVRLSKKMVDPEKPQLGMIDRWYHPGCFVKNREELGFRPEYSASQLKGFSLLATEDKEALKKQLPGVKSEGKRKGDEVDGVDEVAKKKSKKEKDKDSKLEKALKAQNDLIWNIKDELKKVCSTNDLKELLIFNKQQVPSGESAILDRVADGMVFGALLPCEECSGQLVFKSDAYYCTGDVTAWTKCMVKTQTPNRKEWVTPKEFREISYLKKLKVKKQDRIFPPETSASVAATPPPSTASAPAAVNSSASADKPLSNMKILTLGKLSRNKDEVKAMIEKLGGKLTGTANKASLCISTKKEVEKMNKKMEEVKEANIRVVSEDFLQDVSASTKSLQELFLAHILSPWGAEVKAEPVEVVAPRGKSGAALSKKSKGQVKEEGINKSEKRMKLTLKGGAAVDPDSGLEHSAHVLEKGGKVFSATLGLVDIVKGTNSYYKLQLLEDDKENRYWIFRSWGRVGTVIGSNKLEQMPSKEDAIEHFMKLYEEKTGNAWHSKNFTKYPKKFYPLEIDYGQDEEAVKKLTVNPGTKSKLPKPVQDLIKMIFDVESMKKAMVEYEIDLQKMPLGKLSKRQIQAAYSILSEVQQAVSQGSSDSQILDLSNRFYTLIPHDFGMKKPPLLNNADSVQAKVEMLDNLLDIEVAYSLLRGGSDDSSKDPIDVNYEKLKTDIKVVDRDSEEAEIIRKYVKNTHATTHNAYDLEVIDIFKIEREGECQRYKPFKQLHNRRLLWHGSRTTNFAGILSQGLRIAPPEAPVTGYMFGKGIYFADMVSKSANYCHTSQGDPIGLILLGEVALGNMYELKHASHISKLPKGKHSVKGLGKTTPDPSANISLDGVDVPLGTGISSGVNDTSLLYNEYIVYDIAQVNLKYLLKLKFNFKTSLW

Row | melting point [°C] | IC50 (Human PARP-1 enzyme) [nM] | SMILES | tubulin polymerisation score (tubulin)
1 | 194 | 79.4 | CCc1cc2ccc(C(C)(C#N)Cc3nc(N(C)C)cc(N(C)C)n3)cc2[nH]c1=O (stereo not drawn) [Compound 205] | 
2 | 154 | 50.1 | CCc1cc2ccc(C(C)(C#N)Cc3cccc(N4CCC(N(C)C)C4)n3)cc2[nH]c1=O (stereo not drawn) [Compound 209] | 
3 | 111 | 79.4 | CCc1cc2ccc(C(C)(C#N)Cc3cccc(C#Cc4cncn4C)n3)cc2[nH]c1=O (stereo not drawn) [Compound 217] | 
4 | 99 | 398 | CCc1cc2ccc(C(C)(C#N)Cc3cccc(N(C)CCc4ccccc4)n3)cc2[nH]c1=O.Cl (stereo not drawn) [Compound 220] | 
5 | 121 | 50.1 | CCc1cc2ccc(C(C)(C#N)Cc3cccc(C#N)[n+]3[O-])cc2[nH]c1=O (stereo not drawn) [Compound 228] | 
6 | 180 | 63.1 | CCc1cc2c(OC)cc(C(C)(C#N)Cc3nc(OC)cc(OC)n3)cc2[nH]c1=O (stereo not drawn) [Compound 229] | 
7 | 209 | 50.1 | CCc1cc2ccc(C(C)(C#N)CN3CCN(c4ccccn4)CC3)cc2[nH]c1=O (stereo not drawn) [Compound 233] | 1 (a compound showing 0 to 50% inhibition at 20 μM is reported as score 1)
8 | 210 to 211 | 25.1 | CCc1cc2ccc(C(C)(C#N)Cc3cccc4c3CCN4)cc2[nH]c1=O (stereo not drawn) [Compound 237] | 
9 |  | 200 | CCc1cc2ccc(C(C)(C#N)Cc3cc(C#N)nc(C)n3)cc2[nH]c1=O (stereo not drawn) [Compound 319] | 2
10 |  | 79.4 | CCc1cc2ccc(C(C)(C#N)Cc3cc(Cl)nc(N(C)C)c3)cc2[nH]c1=O (stereo not drawn) [Compound 323] | 2
11 |  | 39.8 | CCc1cc2ccc(C(C)(C#N)Cc3cccc(NC)n3)cc2[nH]c1=O (stereo not drawn) [Compound 339] | 2
12 |  | 39.8 | CCc1cc2ccc(C(C)(C#N)Cc3cc(OC)nc(OC)c3)cc2[nH]c1=O (stereo not drawn) [Compound 350] | 2
13 |  | 50.1 | CCc1cc2ccc(C(C)(C#N)Cc3nc(OC)cc(N(C)C)n3)cc2[nH]c1=O (stereo not drawn) [Compound 355] | 2
14 |  | 158 | CCc1cc2ccc(C(C)(C#N)CN3CCC(c4ccccc4)CC3)cc2[nH]c1=O (stereo not drawn) [Compound 375] | 1 (a compound showing 0 to 50% inhibition at 20 μM is reported as score 1)
15 |  | 50.1 | CCc1cc2ccc(C(C)(C#N)CN3CCN(c4ccc(C#N)cn4)CC3)cc2[nH]c1=O (stereo not drawn) [Compound 377] | 1 (a compound showing 0 to 50% inhibition at 20 μM is reported as score 1)
16 |  | 25.1 | CCc1cc2ccc(C(C)(C#N)Cc3cccc4[nH]ccc34)cc2[nH]c1=O (stereo not drawn) [Compound 379] | 2

The remaining lines, values behind:

Row | SMILES | melting point [°C] | IC50 (Human PARP-1 enzyme) [nM] | tubulin polymerisation score (tubulin)
17 | CCc1cc2ccc(C(C)(C#N)Cc3nc(C#N)cc(OC)n3)cc2[nH]c1=O (single isomer, unassigned) [Compound 204] | 180 | 39.8 | 
18 | CCc1cc2ccc(C(C)(C#N)Cc3cccc(OCCCN4CCNCC4)c3)cc2[nH]c1=O (stereo not drawn) [Compound 25] | 50 | 1580 | 
19 | CCc1cc2ccc(C(C#N)(Cc3ccccc3)c3ccc(C#N)cc3)cc2[nH]c1=O (stereo not drawn) [Compound 26] | 255 | 1580 | 
20 | CCc1cc2ccc(C(C#N)(Cc3ccccc3)c3ccccc3)cc2[nH]c1=O (stereo not drawn) [Compound 27] | 229 | 1000 | 
21 | CCc1cc2ccc(C(C#N)(Cc3ccccc3)C3CC3)cc2[nH]c1=O (stereo not drawn) [Compound 29] | 186 | 631 | 
22 | CCc1cc2ccc(C(C#N)(Cc3ccccc3)C(C)C)cc2[nH]c1=O (stereo not drawn) [Compound 30] | 234 | 3160 | 
23 | CCCC(C#N)(Cc1ccccc1)c1ccc2cc(CC)c(=O)[nH]c2c1 (stereo not drawn) [Compound 31] | 210 | 2000 | 
24 | CCc1cc2ccc(C(C)(C#N)Cc3cc(OC)ccc3F)cc2[nH]c1=O (stereo not drawn) [Compound 171] | 160 | 20 | 
25 | CCc1cc2ccc(C(C)(C#N)Cc3cccc(-c4ccc[nH]4)c3)cc2[nH]c1=O (stereo not drawn) [Compound 176] | 194 | 50.1 | 
26 | CCc1cc2ccc(C(C)(C#N)Cc3cccc(CCS(C)(=O)=O)c3)cc2[nH]c1=O (stereo not drawn) [Compound 178] | 150 | 63.1 | 
27 | CCc1cc2ccc(C(C)(C#N)Cc3cccc(/C=N/OC)c3)cc2[nH]c1=O (stereo not drawn) [Compound 185] | 170 | 20 | 
28 | CCc1cc2ccc(C(C)(C#N)Cc3cccc(OCCCC#N)c3)cc2[nH]c1=O (stereo not drawn) [Compound 194] | 148 | 25.1 | 2
29 | CCc1cc2ccc(C(C)(C#N)Cc3cccc(OCCC#N)c3)cc2[nH]c1=O (stereo not drawn) [Compound 195] | 161 | 39.8 | 1 (a compound showing 0 to 50% inhibition at 20 μM is reported as score 1)
30 | C#CCOc1cccc(CC(C)(C#N)c2ccc3cc(CC)c(=O)[nH]c3c2)c1 (stereo not drawn) [Compound 196] | 141 | 25.1 | 2
31 | CCc1cc2ccc(C(C)(C#N)Cc3cccc(OCCS(C)(=O)=O)c3)cc2[nH]c1=O (stereo not drawn) [Compound 201] | 55 | 25.1 | 
32 | CCc1cc2ccc(C(C)(C#N)Cc3nc(Cl)cc(OC)n3)cc2[nH]c1=O (stereo not drawn) [Compound 202] | 162 | 79.4 | 2
